The structures appear in SMILES notation. Positions count from the first letter of the chain named. Where two headings read alike, the source gives them in different places.

Series [1] concerns the target T1, GCase (Homo sapiens, UniProt P04062).
T1 sequence (P04062 40-536): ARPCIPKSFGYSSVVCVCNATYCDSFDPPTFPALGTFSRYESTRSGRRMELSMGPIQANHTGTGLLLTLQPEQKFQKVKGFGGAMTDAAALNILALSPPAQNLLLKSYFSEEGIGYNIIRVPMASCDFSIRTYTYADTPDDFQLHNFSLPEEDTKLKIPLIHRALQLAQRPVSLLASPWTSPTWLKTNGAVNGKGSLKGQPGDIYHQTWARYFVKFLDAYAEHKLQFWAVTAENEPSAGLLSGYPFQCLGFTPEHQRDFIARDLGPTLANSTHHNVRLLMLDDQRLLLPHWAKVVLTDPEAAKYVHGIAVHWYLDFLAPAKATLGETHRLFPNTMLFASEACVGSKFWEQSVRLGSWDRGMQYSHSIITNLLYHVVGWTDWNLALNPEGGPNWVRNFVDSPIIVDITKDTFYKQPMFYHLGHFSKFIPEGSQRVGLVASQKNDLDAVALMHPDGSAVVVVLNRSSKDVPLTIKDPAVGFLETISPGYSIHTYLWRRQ
In words: Inhibitory activity against GCase (4-methylumbelliferyl β-glucoside substrate). It is filed as biochemical. Particulars: for IC50: human GCase, 3 mM 4-MU β-glucoside, pH 5.2, 37° C., 30 min; for increase of inhibitory potency relative to 2-PE-GIZ: phenylethyl group replaced with octyl or dimethylbutyl at the same position. As for the experimental part:
Methods. […] The compounds were added to each reaction mixture individually at the final concentration indicated. After incubation with the diluted human GCase at 37° C. for 30 min, the reaction was stopped by addition of 0.2 M glycine buffer, pH 10.8, the released 4-methylumbelliferone was determined by a fluoremeter at excitation wavelength of 355 nm and emission wavelength at 460 nm, respectively. The relative enzyme activity was calculated as a percentage to those of reactions without inhibitors. IC50 was calculated using Prism sigmoid plot.

The target in series [2] is T2, GCase in fibroblasts from Gaucher patients with N370S/N370S mutation (Homo sapiens, UniProt P04062, N409S).
T2 construct: endogenous in cells; host or cells: fibroblasts from Gaucher patients homozygous for N370S
T2 sequence (P04062 40-536 N409S): T1 sequence (P04062 40-536) with N370S
The series is described as follows: Chaperone activity for GCase in Gaucher patient fibroblasts (residual enzyme activity). The class given is cell-based. Particulars: cultured with compound for 4 days. How it is done:
Methods. Fibroblasts established from Gaucher patients with N370S/N370S mutation were cultured in DMEM medium supplemented with 10% fetal bovine serum and antibiotics at 37° C. under 5% CO2. The GIZ was added into the culture medium at the final concentrations for 4 days prior to the assay. After washing the cells with phosphate-buffered saline, the cells were harvested and homogenized in the presence of 0.25% (w/v) sodium taurocholate and 0.1% (v/v) Triton X-100 in McIlvaine buffer (pH 5.2, Reaction Buffer), and 10 μl of the lysate was used for the determination of residual enzyme activity. The activity of the GCase was determined with 3 mM 4-MU-β-Glc in the Reaction Buffer at 37° C. for 1 hr as conduritol B epoxide (CBE)-sensitive activity in parallel assays without or with pre-incubation with CBE at 1.25 mM for 30 min at room temperature. Protein concentrations in the cell lysates were determined using micro BCA protein assay kit from Pierce.

For series [3] the following is noted: shortly after the start of the treatment; cited from earlier work.
The target of series [4] is T1, GCase. Particulars: literature values (Ogawa et al.); read-out: IC50 against GCase; cited from earlier work.

With `CC(C)(C)CCc1cn2c(n1)[C@H](O)[C@@H](O)[C@H](O)[C@H]2CO` [2-Dimethylbutyl GIZ, (5R,6R,7S,8S)-5-Hydroxymethyl-2-(3,3-dimethylbutyl)-5,6,7,8-tetrahydroimidazo[1,2-a]pyridine-6,7,8-triol], in series [1], 0.03 nM corresponded to half-maximal inhibition (IC50) and the “increase of inhibitory potency relative to 2-PE-GIZ” value is listed as around 37 fold.

In the case of `CCCCCCCCc1cn2c(n1)[C@H](O)[C@@H](O)[C@H](O)[C@H]2CO` [2-Octyl GIZ, (5R,6R,7S,8S)-5-Hydroxymethyl-2-n-octyl-5,6,7,8-tetrahydroimidazo[1,2-a]pyridine-6,7,8-triol], in series [1], the IC50 (usually the concentration that inhibits the measured activity by half) came to 0.07 nM and the “increase of inhibitory potency relative to 2-PE-GIZ” value was “approximately 15 fold”.

With `OC[C@@H]1[C@@H](O)[C@H](O)[C@@H](O)c2nc(CCc3ccccc3)cn21` [2-Phenylethyl GIZ, (5R,6R,7S,8S)-5-hydroxymethyl-2-phenethyl-5,6,7,8-tetrahydroimidazo[1,2-a]pyridine-6,7,8-triol], in series [1], it took 1.1 nM to reach half-maximal inhibition (IC50).

In the case of `OC[C@@H]1[C@@H](O)[C@H](O)[C@@H](O)c2nccn21` [GIZ, (5R,6R,7S,8S)-5-hydroxymethyl-5,6,7,8-tetrahydroimidazo[1,2-a]pyridine-6,7,8-triol], in series [2], the “increase of residual enzyme activity in patient cells” value is on record as “approximately 2 fold” and the “optimal concentration for the maximum enhancement” value is around 300 µM. Further, the IC50 in series [1] is 87 nM.

Take `CCCCN1C[C@H](O)[C@@H](O)[C@H](O)[C@H]1CO` [N-butyl 1-deoxynojirimycin (NB-DNJ), N-butyl 1-deoxynojirimycin]: the “patients with diarrhea (most frequent adverse effect)” value in series [3] is 79%.

Regarding `CCCCCCCCN[C@@H]1C=C(CO)[C@@H](O)[C@H](O)[C@H]1O` [N-octyl valienamine], in series [4], the IC50 is around 300 nM.
